From article PMC12693701, “Glucosinolate-Derived Metabolites from Barbarea vulgaris (Brassicaceae): Evaluation of Antimicrobial, Antioxidant, and Anti-Inflammatory Potentials” (Molecules, 2025) come the findings set out here.

The subject of one assay is B. subtilis ATCC 6633. Nature of the assay: Inhibition of biofilm formation (crystal violet). The class given is cell-based, Bacillus subtilis. Conditions: for BIC50: biofilm coverage reduced by 50%; for BIC90: biofilm coverage reduced by 90%. How it is done:
(§1) The procedure involved preparing 96-well microtiter plates (Sarstedt, Nümbrecht, Germany) by adding 100 μL of Mueller-Hinton nutrient broth to each well. A 10 μL aliquot of bacterial suspension (adjusted to 1.0 McFarland for Gram-positive bacteria and 0.5 McFarland for Gram-negative bacteria) was added to the wells. The plates were then incubated at 37 °C for 48 h to allow biofilm formation. After incubation, the wells were washed twice with 200 μL of sterile 0.85% saline to remove non-adherent and weakly adherent cells. Biofilms formed by the adherent bacteria were fixed with 100 μL of methanol until fully evaporated. The biofilms were then stained using 0.1% (w/v) crystal violet (Fluka Chemie AG, Buchs, Switzerland) and left at room temperature for 20 min. After staining, excess dye was washed off with deionized water, followed by 96% ethanol. Controls included wells containing only nutrient broth to check for sterility and nonspecific binding. Background absorbance from the sterile medium, fixative, and dye was subtracted from the OD readings of the test samples. All experiments were performed in triplicate.
(§2) To assess the inhibition of biofilm formation, 96-well microtiter plates (Sarstedt, Nümbrecht, Germany) were prepared by dispensing 100 μL of Mueller-Hinton broth into each well. From stock solutions of tested compounds (at 10 mg/mL), 100 μL was added to the first row of the plate, followed by twofold serial dilutions (from 5 to 0.039 mg/mL) using a multichannel pipette (Eppendorf AG, Hamburg, Germany). Subsequently, 10 μL of fresh bacterial suspension (adjusted to 0.5 McFarland for Gram-negative and 1.0 McFarland for Gram-positive bacteria) was added to each well. The plates were incubated at 37 °C for 48 h. After incubation, the contents of the wells were carefully removed by tapping, and the remainder of the experiment was conducted following the procedure described above.
(§3) Controls consisted of wells containing only broth or broth with the tested compounds to assess sterility and nonspecific binding. Background absorbance was subtracted from test readings as described earlier. All experiments were performed in triplicate, and tetracycline (Sigma-Aldrich, St. Louis, MO, USA), dissolved in nutrient broth, was used as a reference compound.

The next assay relates to P. mirabilis. Nature of the assay: Inhibition of biofilm formation (crystal violet). The class given is cell-based, Proteus mirabilis. Conditions: for BIC50: biofilm coverage reduced by 50%; for BIC90: biofilm coverage reduced by 90%. How it is done:
as §1, §2, §3

A further assay has as its system S. enterica. Put plainly: Inhibition of biofilm formation (crystal violet). The class given is cell-based, Salmonella enterica. The following applies: for BIC50: biofilm coverage reduced by 50%; for BIC90: biofilm coverage reduced by 90%. Here is the method: as §1, §2, §3
For the next assay, the system named is K. pneumoniae. Put plainly: Inhibition of biofilm formation (crystal violet). Conditions: for BIC50: biofilm coverage reduced by 50%; for BIC90: biofilm coverage reduced by 90%. The class given is cell-based, Klebsiella pneumoniae. Here is the method:
as §1, §2, §3

The subject of a further assay is S. aureus ATCC 25923. Put plainly: Inhibition of biofilm formation (crystal violet). The class given is cell-based, Staphylococcus aureus. Conditions: for BIC50: biofilm coverage reduced by 50%; for BIC90: biofilm coverage reduced by 90%. How it is done: as §1, §2, §3
The next assay deals with tested bacterial strains. Nature of the assay: Microdilution MIC, summary over tested bacterial strains. Conditions: for MIC: read-out: MIC against E. coli ATCC 25922 and S. aureus ATCC 25923 (abstract); for MIC values, range over bacterial strains: all tested bacteria. In kind it is cell-based. Here is the method: The antimicrobial activity was evaluated against 15 microorganisms. This included 11 bacterial strains: four standard strains (Staphylococcus aureus ATCC 25923, Bacillus subtilis ATCC 6633, Bacillus pumilus NCTC 8241, and Escherichia coli ATCC 25922) and six clinical or environmental isolates (Staphylococcus aureus, Escherichia coli, Bacillus cereus, Proteus mirabilis, Salmonella enterica, and Klebsiella pneumoniae). One probiotic strain, Bifidobacterium animalis subsp. lactis was tested. In addition, four fungal strains, Candida albicans ATCC 10231, Trichoderma viride ATCC 13233, Aspergillus flavus ATCC 9170, and Fusarium solani ATCC 11712 were tested. The bacterial strains were kept in glycerol stock at −80 °C and the fungal strains in paraffin oil stock at 4 °C.
Bacterial and yeast suspensions were prepared using the direct colony method, as previously described by Andrews. The turbidity of the initial suspensions was adjusted to match the 0.5 McFarland standard using a densitometer (Biosan, Riga, Latvia), corresponding to approximately 10^8 colony-forming units (CFU)/mL for bacterial cells and 10^6 CFU/mL for yeast cells. Subsequently, 1:100 dilutions of the initial suspensions were prepared in sterile 0.85% saline. Fungal spore suspensions were obtained by gently harvesting spores from agar slopes containing mature mycelial growth. The collected spore suspensions were then diluted 1:1000 in sterile 0.85% saline prior to use.
Antimicrobial activity was evaluated by determining the minimum inhibitory concentration (MIC) and minimum microbicidal concentration (MMC) using the microdilution plate method with resazurin as an indicator [28]. In the 96-well plates, 100 μL of Mueller–Hinton broth (Torlak, Belgrade, Serbia) for bacterial testing and Sabouraud broth (Torlak, Belgrade, Serbia) for fungal testing were dispensed into each well. The compounds under investigation were initially dissolved in a 10% dimethyl sulfoxide (DMSO) solution, followed by dilution in sterile distilled water, resulting in a working compound solution containing 1% DMSO. A 100 μL aliquot of the stock solution of the tested compound was added to the first row, and twofold serial dilutions were then carried out using a multichannel pipette. The resulting concentration range was from 5 to 0.039 mg/mL. The inoculated microtiter plates were incubated at 37 °C for 24 h for bacteria, at 28 °C for 48 h for yeasts, and at 28 °C for 72 h for molds.
Each test also included growth control and sterility control. All tests were conducted in duplicate. MIC was defined as the lowest concentration of tested compounds that prevented resazurin color change from blue to pink. For molds, MIC values of the tested compound were determined as the lowest concentration that inhibited visible mycelia growth. MMC was determined by inoculation of the nutrient agar medium by plating […] of samples from wells, where no indicator color change was recorded. At the end of the incubation period, the lowest concentration with no growth (no colony) was defined as MMC.

In brackets after ≈: the same amount, converted by molar mass.

For the molecule `O=C1NCC(c2ccccc2)O1` (stereo not shown) [Compound 7, 5-Phenyl-1,3-oxazolidin-2-one], the BIC50 in the assay on B. subtilis ATCC 6633 is greater than 5000 µg/mL; in the assay on P. mirabilis it was 3100 µg/mL; in the assay on S. enterica it was 1254 µg/mL; in the assay on K. pneumoniae, 4400 µg/mL; in the assay with S. aureus ATCC 25923, greater than 5000 µg/mL. For the same molecule, the BIC90 was greater than 5000 µg/mL in the assay on B. subtilis ATCC 6633; 4754 µg/mL in the assay with P. mirabilis; greater than 5000 µg/mL in the assay on S. enterica; greater than 5000 µg/mL in the assay on K. pneumoniae; greater than 5000 µg/mL in the assay on S. aureus ATCC 25923.
In the case of `Oc1ccc(CCN=C=S)cc1` [Compound 8, 2-(4-hydroxyphenyl)ethyl isothiocyanate], the BIC50 in the assay on B. subtilis ATCC 6633 is 1100 µg/mL; in the assay with P. mirabilis it was 1428 µg/mL; with S. enterica it was 1547 µg/mL; with K. pneumoniae, 570 µg/mL; in the assay with S. aureus ATCC 25923, 868 µg/mL. Besides, the BIC90 is 2300 µg/mL in the assay with B. subtilis ATCC 6633; 2400 µg/mL in the assay on P. mirabilis; greater than 5000 µg/mL in the assay on S. enterica; 2000 µg/mL in the assay with K. pneumoniae; 1360 µg/mL in the assay with S. aureus ATCC 25923. In addition, the MIC in the assay on tested bacterial strains was 312 to 1250 µg/mL (≈ 1.74 to 6.97 mM).
Turning to `CSC(=S)NCCc1ccc(O)cc1` [Compound 2, methyl-4-hydroxyphenylethyl dithiocarbamate], the BIC50 in the assay with B. subtilis ATCC 6633 is on record as 290 µg/mL; in the assay on P. mirabilis it was 1158 µg/mL; in the assay on S. enterica, 1100 µg/mL; in the assay with K. pneumoniae, 580 µg/mL; in the assay with S. aureus ATCC 25923 it was 220 µg/mL. Also, the BIC90 in the assay with B. subtilis ATCC 6633 stood at 1250 µg/mL; in the assay with P. mirabilis, 4500 µg/mL; in the assay on S. enterica, 3200 µg/mL; with K. pneumoniae, 3600 µg/mL; in the assay with S. aureus ATCC 25923, 2120 µg/mL. Moreover, the minimal inhibitory concentration (MIC) in the assay on tested bacterial strains lay in the range of 312 to 1250 µg/mL (≈ 1.37 to 5.5 mM).
As to `O=C(O)C1CSC(=S)N1` (stereo not shown) [Compound 3, 2-Thioxothiazolidine-4-carboxylic Acid], the BIC50 amounted to 1190 µg/mL in the assay with B. subtilis ATCC 6633; 3420 µg/mL in the assay with P. mirabilis; 2400 µg/mL with S. enterica; 1262 µg/mL with K. pneumoniae; 2500 µg/mL with S. aureus ATCC 25923. For the same molecule, the BIC90 with B. subtilis ATCC 6633 is recorded as 2500 µg/mL; in the assay with P. mirabilis, greater than 5000 µg/mL; with S. enterica, greater than 5000 µg/mL; in the assay with K. pneumoniae it was greater than 5000 µg/mL; with S. aureus ATCC 25923, greater than 5000 µg/mL.
Turning to `S=C1NCC(c2ccccc2)O1` (racemic) [Compound 4, rac-5-Phenyl-1,3-oxazolidine-2-thione], the BIC50 came out at 2700 µg/mL in the assay with B. subtilis ATCC 6633; 3170 µg/mL in the assay on P. mirabilis; 1000 µg/mL in the assay on S. enterica; 3978 µg/mL in the assay with K. pneumoniae; 1500 µg/mL with S. aureus ATCC 25923. For the same molecule, the BIC90 in the assay with B. subtilis ATCC 6633 was greater than 5000 µg/mL; with P. mirabilis, greater than 5000 µg/mL; in the assay on S. enterica, 4470 µg/mL; in the assay on K. pneumoniae, greater than 5000 µg/mL; in the assay on S. aureus ATCC 25923, greater than 5000 µg/mL. Moreover, the “MIC values, range over bacterial strains” value against tested bacterial strains is 1250 to 5000 µg/mL.
Consider `CSC(=S)NCCc1ccccc1` [Compound 1, Methyl phenethylcarbamodithioate], for which the “MIC values, range over bacterial strains” value against tested bacterial strains lay in the range of 1250 to 5000 µg/mL.
On to `O=C1NCC(c2ccccc2)S1` (stereo not shown) [Compound 6, 5-phenyl-1,3-thiazolidin-2-one], for which the “antibacterial activity (in words)” value in the assay on tested bacterial strains (tested concentrations 5 to 0.039 mg/mL) is “no detectable antibacterial activity”.
